Columns and labels:
Assay type in all cases: in vivo
Poa annua (POAAN) [1] = test: Early post-emergence herbicidal action against Poa annua; details: 1900 g/ha; scored visually 9 to 12 days after treatment vs untreated controls; 100% = plants have died, 0% = like control plants
Method: (§1) Seeds of monocotyledonous or dicotyledonous weed plants were placed in 96-well microtiter plates in quartz sand and grown in a climatized chamber under controlled growth conditions. 5 to 7 days after sowing, the test plants were treated at the cotyledon stage. The compounds according to the invention, formulated in the form of emulsion concentrates (EC), were applied with a water application rate of the equivalent of 2200 liters per hectare. After the test plants had been left to stand in the climatized chamber for 9 to 12 days under optimum growth conditions, the effect of the preparations was scored visually in comparison to untreated controls. For example, 100% activity=the plants have died, 0% activity=like control plants. Tables A1 to A2 below show the effects of selected compounds of the general formula (I) according to Table 1 on various harmful plants and an application rate corresponding to 1,900 g/ha, which were obtained by the experimental procedure mentioned above.

Agrostis tenuis (AGSTE) = test: Early post-emergence herbicidal action against Agrostis tenuis; details: 1900 g/ha; scored visually 9 to 12 days after treatment vs untreated controls; 100% = plants have died, 0% = like control plants
Method: as §1

Stellaria media (STEME) [2] = test: Post-emergence herbicidal action against Stellaria media; details: 1280 g/ha; rated visually after about 3 weeks vs untreated controls; 100% = plants have died, 0% = like control plants
Procedure, shortened: (§2)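 Weeds sown in sandy loam, grown in greenhouse and treated at one-leaf stage (2–3 weeks after sowing) with WP or EC formulations as aqueous spray plus 0.5% additive at 600 L/ha water. Application rate 1280 g/ha. Visual rating after about 3 weeks versus untreated controls (100% = plants dead, 0% = like control).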

Poa annua (POAAN) [3] = test: Pre-emergence herbicidal action against Poa annua; details: 1280 g/ha; scored visually after about 3 weeks vs untreated controls; 100% = plants have died, 0% = like control plants
Procedure, shortened: (§3)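 Pre-emergence, sandy loam pots: WP/EC formulation + 0.5% additive sprayed on covering soil, 600 L/ha water, 1280 g/ha. Greenhouse ~3 wk. Visual % effect vs untreated control; 0% = like control, 100% = plants dead.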

[4] = tested on: Amaranthus retroflexus (AMARE); test: Post-emergence herbicidal action against Amaranthus retroflexus; details: 1280 g/ha; rated visually after about 3 weeks vs untreated controls; 100% = plants have died, 0% = like control plants
Procedure, shortened: as §2

[5] = tested on: Abutilon theophrasti (ABUTH); test: Post-emergence herbicidal action against Abutilon theophrasti; details: 1280 g/ha; rated visually after about 3 weeks vs untreated controls; 100% = plants have died, 0% = like control plants
Procedure, shortened: as §2

Lolium rigidum (LOLRI) = test: Pre-emergence herbicidal action against Lolium rigidum; details: 1280 g/ha; scored visually after about 3 weeks vs untreated controls; 100% = plants have died, 0% = like control plants
Procedure, shortened: as §3

Poa annua (POAAN) [6] = test: Post-emergence herbicidal action against Poa annua; details: 1280 g/ha; rated visually after about 3 weeks vs untreated controls; 100% = plants have died, 0% = like control plants
Procedure, shortened: as §2

[7] = tested on: Abutilon theophrasti (ABUTH); test: Pre-emergence herbicidal action against Abutilon theophrasti; details: 1280 g/ha; scored visually after about 3 weeks vs untreated controls; 100% = plants have died, 0% = like control plants
Procedure, shortened: as §3

Setaria viridis (SETVI) = test: Pre-emergence herbicidal action against Setaria viridis; details: 1280 g/ha; scored visually after about 3 weeks vs untreated controls; 100% = plants have died, 0% = like control plants
Procedure, shortened: as §3

[8] = tested on: Matricaria inodora (MATIN); test: Pre-emergence herbicidal action against Matricaria inodora; details: 1280 g/ha; scored visually after about 3 weeks vs untreated controls; 100% = plants have died, 0% = like control plants
Procedure, shortened: as §3

[9] = tested on: Echinochloa crus-galli (ECHCG); test: Post-emergence herbicidal action against Echinochloa crus-galli; details: 1280 g/ha; rated visually after about 3 weeks vs untreated controls; 100% = plants have died, 0% = like control plants
Method: (§4) Seeds of mono- and dicotyledonous weed plants were placed in plastic pots in sandy loam soil (doubly sown with in each case one species of mono- or dicotyledonous weed plants per pot), covered with soil and cultivated in a greenhouse under controlled growth conditions. 2 to 3 weeks after sowing, the test plants were treated at the one-leaf stage. The compounds of the invention, formulated in the form of wettable powders (WP) or as emulsion concentrates (EC), were applied onto the green parts of the plants as aqueous suspension or emulsion with addition of 0.5% additive at a water application rate of 600 liters per hectare (converted). After the test plants had been kept in the greenhouse under optimum growth conditions for about 3 weeks, the activity of the preparations was rated visually in comparison to untreated controls. For example, 100% activity=the plants have died, 0% activity=like control plants. Tables B1 to B8 below show the effects of selected compounds of the general formula (I) according to Table 1 on various harmful plants and an application rate corresponding to 1280 g/ha, which were obtained by the experimental procedure mentioned above.

[10] = tested on: Amaranthus retroflexus (AMARE); test: Pre-emergence herbicidal action against Amaranthus retroflexus; details: 1280 g/ha; scored visually after about 3 weeks vs untreated controls; 100% = plants have died, 0% = like control plants
Procedure, shortened: as §3

[11] = tested on: Matricaria inodora (MATIN); test: Post-emergence herbicidal action against Matricaria inodora; details: 1280 g/ha; rated visually after about 3 weeks vs untreated controls; 100% = plants have died, 0% = like control plants; column head prints STEME
Method: as §4

[12] = tested on: Echinochloa crus-galli (ECHCG); test: Pre-emergence herbicidal action against Echinochloa crus-galli; details: 1280 g/ha; scored visually after about 3 weeks vs untreated controls; 100% = plants have died, 0% = like control plants
Procedure, shortened: as §3

Stellaria media (STEME) [13] = test: Pre-emergence herbicidal action against Stellaria media; details: 1280 g/ha; scored visually after about 3 weeks vs untreated controls; 100% = plants have died, 0% = like control plants
Procedure, shortened: as §3

For `Cc1cc(C)c(Oc2ncc(Cl)cc2F)c(Oc2ncc(F)cn2)n1` [Example I-591], the “Early post-emergence action against Poa annua (POAAN)” value (Poa annua (POAAN) [1]) was 100% and the “Early post-emergence action against Agrostis tenuis (AGSTE)” value (Agrostis tenuis (AGSTE)) was 100%.
In the case of `Cc1cc(C)c(Oc2ncc(F)cn2)c(Oc2ncc(F)cn2)n1` [Example I-595], the “Early post-emergence action against Poa annua (POAAN)” value (Poa annua (POAAN) [1]) was 100% and the “Early post-emergence action against Agrostis tenuis (AGSTE)” value (Agrostis tenuis (AGSTE)) was 100%.
In the case of `Cc1cc(C)c(Cc2ccc(F)cc2F)c(Oc2ncc(F)cn2)n1` [Example I-481], the “Post-emergence action against Stellaria media (STEME)” value (Stellaria media (STEME) [2]) was 100%, the “Pre-emergence action against Poa annua (POAAN)” value (Poa annua (POAAN) [3]) was 100% and the “Post-emergence action against Amaranthus retroflexus (AMARE)” value [4] was 100%. The “Post-emergence action against Abutilon theophrasti (ABUTH)” value [5] was 100%, the “Pre-emergence action against Lolium rigidum (LOLRI)” value (Lolium rigidum (LOLRI)) was 100% and the “Post-emergence action against Poa annua (POAAN)” value (Poa annua (POAAN) [6]) was 100%. The “Pre-emergence action against Abutilon theophrasti (ABUTH)” value [7] was 100%, the “Pre-emergence action against Setaria viridis (SETVI)” value (Setaria viridis (SETVI)) was 100% and the “Pre-emergence action against Matricaria inodora (MATIN)” value [8] was 100%. The “Post-emergence action against Echinochloa crus-galli (ECHCG)” value [9] was 100%, the “Pre-emergence action against Amaranthus retroflexus (AMARE)” value [10] was 100% and the “Post-emergence action against Matricaria inodora (MATIN)” value [11] was 90%. The “Pre-emergence action against Echinochloa crus-galli (ECHCG)” value [12] was 100% and the “Pre-emergence action against Stellaria media (STEME)” value (Stellaria media (STEME) [13]) was 100%.
